Assay results reported in article PMC11982498 (Redox Biology, 2025).

Legend:
[1] = tested on: Aβ1-42 aggregation in SH-SY5Y cells; experiment: Fluorescence imaging of intracellular Aβ1-42 accumulation (ThT); assay type: cell-based; conditions: 25 μM Aβ1-42; 25 μM B14, 48 h
Experimental: SH-SY5Y cells were seeded in a 96-well plate (6000 cells/well) in 100 μL medium. After the cells adhered to the wall, SH-SY5Y cells were incubated with serum-free medium containing 25 μM Aβ1-42 for 6 h to allow for the uptake of Aβ1-42 into the cells. Then solutions of B14 at different concentrations were added to the cells, with the mixtures incubated for 48 h. After being washed for three times with pre-cooled PBS, the cells were fixed with freshly prepared 4 % paraformaldehyde (Servicebio, Guangzhou, China) for 10 min at room temperature. After being washed for three times with pre-cooled PBS, the cells were incubated with ThT solution for 20 min at 25 °C in the dark. After washing for three times with pre-cooled PBS, the cells were stained with 10 μg/mL Hoechst 33342 solution (Aladdin, Shanghai, China) for 20 min at 25 °C in the dark. After washing for three times with pre-cooled PBS, the stained cells were observed and photographed with a FV3000 (Olympus, Japan) fluorescence microscope.

[2] = tested on: BCL-2 gene transcription in brain of APP/PS1 mice; experiment: Real-time RT-PCR of mice brain, BCL-2; assay type: in vivo; conditions: for F = 2^-∆∆Ct (relative expression fold), BCL-2: relative to WT
Experimental: Five months old male APP/PS1 mice, weighing 25–33 g, were purchased from Guangdong Medical Laboratory Animal Center and housed in the Laboratory Animal Center of Sun Yat-sen University (Guangzhou, China) for experimentation. […] The mice were housed in a specific pathogen-free environment with a controlled temperature of 22 ± 1 °C and a 12-h dark/light cycle. The mice were fed with a standard diet, and 30 mice were randomly divided into 6 groups (N = 5). […] Behavioral experiments were then conducted, and tissue specimens were collected for biochemical analysis.
(§1) ^a -∆∆Ct = -[(Ct value of genes in treated sample - Ct value of genes in control) - (Ct value of β-actin in treated sample - Ct value of β-actin in control)]. ^b F: The relative expression fold.
(§2) Following sample homogenization, chloroform was added, and the solution was allowed to have phase separation into an upper aqueous layer (containing RNA), an interphase, and a lower organic layer (containing DNA and proteins). RNA was precipitated from the aqueous phase using isopropanol, while DNA was precipitated from the aqueous-organic interphase using ethanol.
(§3) Quantitative real-time polymerase chain reaction (qRT-PCR) was performed using the 2× RealStar SYBR Mixture (GenStar, Cat# A301-10, Guangzhou, China) on a LightCycler 480 II real-time PCR system (Roche, USA). Data were analyzed using the 2^−ΔΔCt method. Actin served as the internal control, and relative mRNA levels were normalized accordingly.

[3] = tested on: BAX gene transcription in SH-SY5Y cells; experiment: Real-time RT-PCR in SH-SY5Y cells, BAX; assay type: cell-based, human
Experimental: (§4) SH-SY5Y cells were treated with or without B14, and total RNA was subsequently isolated and purified. Reverse transcription was performed using a cDNA synthesis kit. The relative transcription levels of the genes were evaluated through quantitative real-time PCR using the SYBR Green-based method, as described in the Supplementary Date. Details regarding the primer sequences and the raw data can be found in Table S7 and Table S8.
as §1
Experiment 1: SH-SY5Y cells were treated with different concentration of B14. The Ct values of BAX, VEGF, CMYC and BCL-2 were obtained.
as §2, with “Total RNA was extracted from cells and mice liver tissue using RNAiso Plus (Takara, 9109, Japan). Following” for “Following”, “ethanol. Complementary DNA (cDNA) was synthesized using the One-Step RT-PCR Kit (Takara, Cat#639503, Japan).” for “ethanol.”
as §3

[4] = tested on: bio-BCL-2 (BCL-2 IM) (DNA, i motif) CAGCCCCGCTCCCGCCCCCTTCCTCCCGCGCCCGCCCCT; experiment: SPR; conditions: K+ 100 mM; 20 mM MES, pH 5.5, 25 °C
[5] = tested on: BAX gene transcription in SH-SY5Y cells; experiment: Real-time RT-PCR in 25 μM Aβ1-42 cell model, BAX; assay type: cell-based, human
Experimental: as §4, §1
Experiment 2: The Ct values of BCL-2 and Bax in 25 μM Aβ1-42 model with different concentration of B14.
as §2, with “Total RNA was extracted from cells and mice liver tissue using RNAiso Plus (Takara, 9109, Japan). Following” for “Following”, “ethanol. Complementary DNA (cDNA) was synthesized using the One-Step RT-PCR Kit (Takara, Cat#639503, Japan).” for “ethanol.”
as §3

HT-22 cells = experiment: MTT cytotoxicity assay, HT-22; assay type: cell-based; conditions: Mus musculus, incubation for 48 h
Experimental: SH-SY5Y cells, HepG2 cells, HK-2 cells and HT-22 cells were seeded on 96-well plates (5.0×10^3 per well) with 100 μL of culture medium, and incubated for 12 h at 37 °C in a humidified atmosphere with 5% CO2, and then exposed to various concentrations of B14. After 48 h of treatment at 37 °C in a humidified atmosphere with 5% CO2, 100 μL of 0.5 mg/mL MTT solution was added to each well, and the mixture was further incubated for 4 h. The cells in each well were then treated with DMSO (200 μL for each well), and the culture medium was siphoned off, and the absorbance was recorded at 570 nm. All drug doses were parallel tested in triplicate, and the cytotoxicity was evaluated based on the percentage of cell survival in a dose-dependent manner regarding the negative control. The final IC50 values were determined by using Graph Pad Prism 9.0.

Structure (SMILES): O=C(CCN1CCOCC1)Nc1ccc2c(c1)c(=O)c1cc(NC(=O)CCN3CCOCC3)ccc1n2-c1ccc2occc2c1 [Compound B14]
- ThT fluorescence of SH-SY5Y cells (intracellular Aβ1-42 aggregation) [1]: almost completely disappeared
- -∆∆Ct, BCL-2 ([2]; 10 mg/kg): 0.39
- F = 2^-∆∆Ct (relative expression fold), BCL-2 ([2]; 10 mg/kg): 0.76
- -∆∆Ct, BCL-2 ([2]; 20 mg/kg): 0.17
- F = 2^-∆∆Ct (relative expression fold), BCL-2 ([2]; 20 mg/kg): 0.88
- -∆∆Ct, BCL-2 ([2]; 40 mg/kg): -0.01
- F = 2^-∆∆Ct (relative expression fold), BCL-2 ([2]; 40 mg/kg): 1.00
- -∆∆Ct, BAX ([3]; 6.25 μM B14): -0.13
- F = 2^-∆∆Ct (relative expression fold), BAX ([3]; 6.25 μM B14): 1.09
- -∆∆Ct, BAX ([3]; 12.5 μM B14): 0
- F = 2^-∆∆Ct (relative expression fold), BAX ([3]; 12.5 μM B14): 1.00
- -∆∆Ct, BAX ([3]; 25 μM B14): -0.03
- F = 2^-∆∆Ct (relative expression fold), BAX ([3]; 25 μM B14): 1.02
- KD [4]: 2.13 µM
- -∆∆Ct, BAX ([5]; 25 μM Aβ1-42 + 6.25 μM B14): -1.71
- F = 2^-∆∆Ct (relative expression fold), BAX ([5]; 25 μM Aβ1-42 + 6.25 μM B14): 3.23
- -∆∆Ct, BAX ([5]; 25 μM Aβ1-42 + 12.5 μM B14): -1.09
- F = 2^-∆∆Ct (relative expression fold), BAX ([5]; 25 μM Aβ1-42 + 12.5 μM B14): 2.13
- -∆∆Ct, BAX ([5]; 25 μM Aβ1-42 + 25 μM B14): -0.80
- F = 2^-∆∆Ct (relative expression fold), BAX ([5]; 25 μM Aβ1-42 + 25 μM B14): 1.71
- IC50 (HT-22 cells): > 100 µM
